Test results as given in ChEMBL document CHEMBL1127907, “Design of a potent 5-HT4 receptor agonist with nanomolar affinity” (Bioorg Med Chem Lett, 1994).

Columns and labels:
[1] = target: T1, 5-hydroxytryptamine receptor 4 (Rattus norvegicus, UniProt Q62758); experiment: Binding affinity against 5-hydroxytryptamine 4 receptor using [3H]GR-113808 as radioligand in rat striatum; assay type: tissue-based
[2] = target: 5-hydroxytryptamine receptor 4 (Cavia porcellus) (UniProt O70528); experiment: 5-hydroxytryptamine 4 receptor agonist activity as percent maximum 5-HT effect in response to electrical stimulation in male guinea pig ileum; assay type: functional, tissue-based
5-hydroxytryptamine receptor 4 (Cavia porcellus), sequence (O70528 whole entry): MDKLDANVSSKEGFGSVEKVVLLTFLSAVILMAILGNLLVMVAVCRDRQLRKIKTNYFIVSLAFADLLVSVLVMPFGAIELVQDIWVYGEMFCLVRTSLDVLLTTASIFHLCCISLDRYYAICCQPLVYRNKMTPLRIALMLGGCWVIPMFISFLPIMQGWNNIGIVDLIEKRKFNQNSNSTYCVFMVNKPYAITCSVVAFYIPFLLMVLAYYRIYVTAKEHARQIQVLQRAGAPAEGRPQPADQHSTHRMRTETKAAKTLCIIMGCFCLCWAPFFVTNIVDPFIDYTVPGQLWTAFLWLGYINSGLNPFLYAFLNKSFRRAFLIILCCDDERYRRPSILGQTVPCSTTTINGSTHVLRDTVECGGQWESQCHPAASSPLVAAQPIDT

[3] = target: T2, 5-hydroxytryptamine receptor 4 (Cavia porcellus, UniProt O70528); experiment: 5-hydroxytryptamine 4 receptor antagonist activity expressed as the concentration which produced a 50% reduction of 5-HT induced contraction in guinea pig ileum; assay type: functional, tissue-based
T2 sequence (O70528 whole entry): as above

[4] = target: T2, 5-hydroxytryptamine receptor 4; experiment: 5-hydroxytryptamine 4 receptor agonist activity as increased response to electrical stimulation in guinea pig ileum; assay type: functional, tissue-based
[5] = target: T3, Serotonin 3 (5-HT3) receptor (Rattus norvegicus, UniProt P35563+Q9JJ16); experiment: Binding affinity against 5-hydroxytryptamine 3 receptor using [3H]BRL-43694 in rat posterior cortex; assay type: tissue-based
T3 sequence (P35563 whole entry): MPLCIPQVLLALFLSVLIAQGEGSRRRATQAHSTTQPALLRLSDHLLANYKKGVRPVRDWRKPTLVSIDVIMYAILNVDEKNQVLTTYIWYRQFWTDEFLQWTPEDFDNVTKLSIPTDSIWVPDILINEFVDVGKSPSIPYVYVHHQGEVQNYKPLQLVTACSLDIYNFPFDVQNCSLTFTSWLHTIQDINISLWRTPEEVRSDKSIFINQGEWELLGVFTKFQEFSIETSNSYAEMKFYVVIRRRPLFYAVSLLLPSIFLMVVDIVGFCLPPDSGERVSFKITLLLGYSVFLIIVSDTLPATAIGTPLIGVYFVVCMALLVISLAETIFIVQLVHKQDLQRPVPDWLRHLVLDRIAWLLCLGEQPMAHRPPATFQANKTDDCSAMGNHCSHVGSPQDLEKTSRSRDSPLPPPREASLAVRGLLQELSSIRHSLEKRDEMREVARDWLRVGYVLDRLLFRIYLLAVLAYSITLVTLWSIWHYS
T3 sequence (Q9JJ16 whole entry): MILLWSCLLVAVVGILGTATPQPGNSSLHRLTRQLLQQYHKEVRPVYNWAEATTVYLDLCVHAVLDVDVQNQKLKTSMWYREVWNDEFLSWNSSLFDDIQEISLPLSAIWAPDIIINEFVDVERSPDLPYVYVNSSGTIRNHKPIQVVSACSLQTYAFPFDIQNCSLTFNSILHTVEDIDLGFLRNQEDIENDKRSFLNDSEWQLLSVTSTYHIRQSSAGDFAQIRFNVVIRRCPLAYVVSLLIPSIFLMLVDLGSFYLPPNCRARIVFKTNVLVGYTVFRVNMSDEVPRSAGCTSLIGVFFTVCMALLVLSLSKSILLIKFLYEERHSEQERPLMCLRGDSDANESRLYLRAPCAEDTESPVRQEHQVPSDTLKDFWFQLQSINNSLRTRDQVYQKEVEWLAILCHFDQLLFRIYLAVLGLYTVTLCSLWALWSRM

[6] = target: T2, 5-hydroxytryptamine receptor 4; experiment: 5-hydroxytryptamine 4 receptor antagonist activity expressed as the concentration which produced a 50% reduction of 5-HT induced contraction in guinea pig ileum; Not evaluable; assay type: functional, tissue-based
[7] = target: T1, 5-hydroxytryptamine receptor 4; experiment: 5-hydroxytryptamine 4 receptor agonist activity was determined by the relaxation of the carbachol-contracted rat esophageal tunica muscularis mucosae; assay type: functional

T1 sequence (Q62758 whole entry): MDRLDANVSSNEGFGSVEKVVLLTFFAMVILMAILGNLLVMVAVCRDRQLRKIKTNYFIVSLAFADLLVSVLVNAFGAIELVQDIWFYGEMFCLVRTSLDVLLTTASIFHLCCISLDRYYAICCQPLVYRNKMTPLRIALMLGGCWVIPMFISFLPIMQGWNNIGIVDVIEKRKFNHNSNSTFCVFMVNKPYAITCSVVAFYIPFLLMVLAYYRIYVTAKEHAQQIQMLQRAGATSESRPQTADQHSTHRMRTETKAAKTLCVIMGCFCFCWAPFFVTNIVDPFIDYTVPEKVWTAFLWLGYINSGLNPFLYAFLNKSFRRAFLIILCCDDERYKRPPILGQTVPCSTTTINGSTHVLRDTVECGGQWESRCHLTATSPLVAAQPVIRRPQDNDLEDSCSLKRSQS

Row | Compound | Ki [1] | Activity [2] | IC50 [3] | EC50 [4] | Ki [5] | IC50 [6] | IC50 [7]
1 | COc1cc(N)c(Cl)cc1C(=O)OC1CCN(C)CC1 | 23 nM | 53% | 60 nM | 110 nM | 72 nM | – | –
2 | CCN(CC)CCOC(=O)c1cc(Cl)c(N)cc1OC | 5.3 nM | – | – | > 1000 nM | 205 nM | 77 nM | –
3 | COc1cc(N)c(Cl)cc1C(=O)NC1CN2CCC1CC2 (centres undefined) [ZACOPRIDE] | 753 nM | – | – | 260 nM | 0.7 nM | – | –
4 | COc1cc(N)c(Cl)cc1C(=O)OC1CC2CCC(C1)N2C (centres undefined) | 64.3 nM | 54% | – | 27 nM | 3.2 nM | – | –
5 | CCN(CC)CCNC(=O)c1cc(Cl)c(N)cc1OC [METOCLOPRAMIDE] | – | – | – | – | 443 nM | – | –
6 | COc1cc(N)c(Cl)cc1C(=O)OCCN1CCCCC1 | 1.07 nM | 80% | – | – | 782 nM | – | 2.4 nM
7 | CCN1CCCC(OC(=O)c2cc(Cl)c(N)cc2OC)C1 (centres undefined) | 34.5 nM | 79% | – | 44 nM | – | – | –
8 | CCN1CCC(OC(=O)c2cc(Cl)c(N)cc2OC)CC1 | 10.3 nM | 60% | – | 22 nM | 118 nM | – | –
9 | NCCc1c[nH]c2ccc(O)cc12 | – | 100% | – | – | – | – | –
